Data from US10981911B2, “Imidazopyrrolopyridine as inhibitors of the JAK family of kinases” (Janssen Pharmaceutica NV, priority 2016, dated 2021).

How the values were obtained:
Format in all cases: biochemical
JAK2-JH1JH2 = JAK2-JH1JH2 (Homo sapiens (Human), UniProt O60674); assay: Enzymatic inhibition assay (RapidFire HTMS), JAK2; details: 30 μM ATP, 40 μM substrate
Procedure, shortened: (§1)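 Quenched with 0.5% TFA plus internal-standard peptide; phosphorylated product quantified by RapidFire C4 SPE–ESI-MS, 11-point 1:3 or 1:4 dilutions in duplicate.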

JAK1-JH1JH2 = JAK1-JH1JH2 (Homo sapiens (Human), UniProt P23458); assay: Enzymatic inhibition assay (RapidFire HTMS), JAK1; details: 12.5 μM ATP, 200 μM substrate; read-out: JAK1-JH2JH1 IC50
Chain of JAK1-JH1JH2 (P23458 574-1154): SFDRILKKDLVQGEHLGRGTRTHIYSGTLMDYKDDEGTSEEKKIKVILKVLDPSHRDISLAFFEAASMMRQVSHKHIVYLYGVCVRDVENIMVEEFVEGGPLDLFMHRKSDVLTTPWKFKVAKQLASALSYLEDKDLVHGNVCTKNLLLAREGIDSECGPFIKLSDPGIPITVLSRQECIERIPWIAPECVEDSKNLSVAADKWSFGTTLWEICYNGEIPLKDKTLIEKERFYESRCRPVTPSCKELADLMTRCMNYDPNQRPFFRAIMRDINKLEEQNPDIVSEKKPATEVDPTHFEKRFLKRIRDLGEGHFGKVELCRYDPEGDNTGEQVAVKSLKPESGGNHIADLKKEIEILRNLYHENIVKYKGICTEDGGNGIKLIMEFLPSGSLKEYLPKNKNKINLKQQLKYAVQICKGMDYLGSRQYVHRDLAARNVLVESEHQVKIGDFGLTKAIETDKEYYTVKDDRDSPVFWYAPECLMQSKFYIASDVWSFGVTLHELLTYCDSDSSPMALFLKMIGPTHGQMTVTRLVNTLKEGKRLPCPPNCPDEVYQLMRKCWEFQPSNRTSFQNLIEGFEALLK
Procedure, shortened: as §1

Tyk2-JH1JH2 = Tyk2-JH1JH2 (Homo sapiens (Human), UniProt P29597, C1142A/C936A); assay: Enzymatic inhibition assay (RapidFire HTMS), Tyk2; details: 50 μM ATP, 200 μM substrate
Chain of Tyk2-JH1JH2 (P29597 580-1182 C936A/C1142A): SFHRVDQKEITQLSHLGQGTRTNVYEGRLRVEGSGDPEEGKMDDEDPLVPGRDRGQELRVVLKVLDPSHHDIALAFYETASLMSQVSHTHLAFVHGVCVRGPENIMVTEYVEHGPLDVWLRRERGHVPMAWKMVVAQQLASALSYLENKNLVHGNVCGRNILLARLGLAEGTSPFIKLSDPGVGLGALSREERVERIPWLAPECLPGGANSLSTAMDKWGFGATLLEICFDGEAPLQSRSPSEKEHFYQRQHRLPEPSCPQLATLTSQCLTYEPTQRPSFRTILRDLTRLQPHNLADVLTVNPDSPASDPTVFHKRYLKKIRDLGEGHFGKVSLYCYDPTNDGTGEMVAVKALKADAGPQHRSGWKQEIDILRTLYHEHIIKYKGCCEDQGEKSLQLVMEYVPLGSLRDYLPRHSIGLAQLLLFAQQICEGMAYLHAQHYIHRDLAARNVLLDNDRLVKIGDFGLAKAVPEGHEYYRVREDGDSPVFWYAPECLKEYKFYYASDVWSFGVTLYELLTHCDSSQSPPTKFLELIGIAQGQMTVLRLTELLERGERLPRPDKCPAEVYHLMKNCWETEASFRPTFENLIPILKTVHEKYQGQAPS
Procedure, shortened: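 Compounds were tested in duplicate as 11-point 1:3 or 1:4 DMSO dilutions (≤0.25% DMSO final) in 20 μL reactions at 25 °C for 90 min, with Tyk2 pre-incubated 30 min with 2 mM ATP. Reactions were quenched with TFA plus internal standard peptide, and phosphorylated product was quantified by RapidFire C4 SPE–ESI MS.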

JAK3-JH1JH2 = JAK3-JH1JH2 (Homo sapiens (Human), UniProt P52333); assay: Enzymatic inhibition assay (RapidFire HTMS), JAK3; details: 150 μM ATP, 40 μM substrate
Chain of JAK3-JH1JH2 (P52333 512-1124): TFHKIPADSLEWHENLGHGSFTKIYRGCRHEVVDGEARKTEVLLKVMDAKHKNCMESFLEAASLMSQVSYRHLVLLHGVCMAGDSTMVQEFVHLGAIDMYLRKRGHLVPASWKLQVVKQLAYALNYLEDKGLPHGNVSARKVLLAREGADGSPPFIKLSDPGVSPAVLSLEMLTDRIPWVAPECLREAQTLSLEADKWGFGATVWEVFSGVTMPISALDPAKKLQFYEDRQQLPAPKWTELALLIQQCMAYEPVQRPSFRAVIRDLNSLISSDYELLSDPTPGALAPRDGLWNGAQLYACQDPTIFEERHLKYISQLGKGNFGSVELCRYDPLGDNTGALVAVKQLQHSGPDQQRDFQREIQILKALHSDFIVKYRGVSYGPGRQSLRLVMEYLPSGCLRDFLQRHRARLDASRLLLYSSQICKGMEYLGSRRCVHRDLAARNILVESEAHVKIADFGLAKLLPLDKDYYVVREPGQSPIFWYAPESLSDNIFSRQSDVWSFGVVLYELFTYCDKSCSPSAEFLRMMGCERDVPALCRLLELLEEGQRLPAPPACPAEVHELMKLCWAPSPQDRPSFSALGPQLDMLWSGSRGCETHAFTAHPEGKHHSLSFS
Procedure, shortened: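 Compounds tested in duplicate over 11-point 1:3 or 1:4 dilution series; no-enzyme wells as negative control. After 45 min at 25 °C, TFA quench with internal standard, and phosphorylated product quantified by RapidFire–QTrap mass spectrometry relative to the uninhibited reaction.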

Chain of JAK2-JH1JH2 (O60674 532-1132): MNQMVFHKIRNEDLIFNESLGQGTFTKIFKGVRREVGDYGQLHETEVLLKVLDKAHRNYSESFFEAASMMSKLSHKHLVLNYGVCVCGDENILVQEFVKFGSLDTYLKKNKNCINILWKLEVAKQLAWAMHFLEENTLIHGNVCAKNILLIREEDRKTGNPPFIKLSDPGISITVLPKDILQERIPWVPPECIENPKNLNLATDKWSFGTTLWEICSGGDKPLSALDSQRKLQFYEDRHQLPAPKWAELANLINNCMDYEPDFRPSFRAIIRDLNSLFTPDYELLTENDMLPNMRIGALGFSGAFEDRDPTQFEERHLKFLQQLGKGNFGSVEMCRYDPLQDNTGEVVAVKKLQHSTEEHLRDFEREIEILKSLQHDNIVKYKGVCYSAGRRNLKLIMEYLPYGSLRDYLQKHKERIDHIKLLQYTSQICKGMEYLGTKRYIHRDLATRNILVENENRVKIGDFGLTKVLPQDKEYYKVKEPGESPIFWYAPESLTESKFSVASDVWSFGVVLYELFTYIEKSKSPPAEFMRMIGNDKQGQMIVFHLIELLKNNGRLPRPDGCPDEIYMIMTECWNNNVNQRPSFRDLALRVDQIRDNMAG

| IC50 (JAK2-JH1JH2) [nM] | IC50 (JAK1-JH1JH2) [nM] | IC50 (Tyk2-JH1JH2) [nM] | IC50 (JAK3-JH1JH2) [nM] | Compound |
| --- | --- | --- | --- | --- |
| 27.1 | 0.4 | 10.4 | 1120 | CN1CCC(NC(=O)c2nc3cnc4[nH]ccc4c3n2[C@H]2CC[C@H](CC#N)CC2)CC1 [Ex. 84, 1-((1r,4r)-4-(Cyanomethyl)cyclohexyl)-N-(1-methylpiperidin-4-yl)-1,6-dihydroimidazo[4,5-d]pyrrolo[2,3-b]pyridine-2-carboxamide] |
| 14 | 0.4 | 2.6 | 2270 | CC(=N)NCc1nc2cnc3[nH]ccc3c2n1[C@H]1CC[C@H](CC#N)CC1 [Ex. 86, N-((1-((1r,4r)-4-(Cyanomethyl)cyclohexyl)-1,6-dihydroimidazo[4,5-d]pyrrolo[2,3-b]pyridin-2-yl)methyl)acetimidamide] |
| 27.7 | < 0.4 | 10.3 | 274 | N#CC[C@H]1CC[C@H](n2c(CC(=O)N3CCC(Cc4ccccc4)CC3)nc3cnc4[nH]ccc4c32)CC1 [Ex. 87, 2-((1r,4r)-4-(2-(2-(4-Benzylpiperidin-1-yl)-2-oxoethyl)imidazo[4,5-d]pyrrolo[2,3-b]pyridin-1(6H)-yl)cyclohexyl)acetonitrile] |
| 3.4 | 0.4 | 18 | 60.6 | CNc1nccc(-c2nc3cnc4[nH]ccc4c3n2[C@H]2CC[C@H](CC#N)CC2)n1 [Ex. 89, 2-((1r,4r)-4-(2-(2-(Methylamino)pyrimidin-4-yl)imidazo[4,5-d]pyrrolo[2,3-b]pyridin-1(6H)-yl)cyclohexyl)acetonitrile] |
| 8.1 | < 4 | ~2.4 | 85 | N#CC[C@H]1CC[C@H](n2c(CC(=O)N3CCCCC3)nc3cnc4[nH]ccc4c32)CC1 [Ex. 90, 2-((1r,4r)-4-(2-(2-Oxo-2-(piperidin-1-yl)ethyl)imidazo[4,5-d]pyrrolo[2,3-b]pyridin-1(6H)-yl)cyclohexyl)acetonitrile] |
| 30.1 | 0.4 | 35.5 | 851 | CS(=O)(=O)c1ccc(-c2ccc(-c3nc4cnc5[nH]ccc5c4n3[C@H]3CC[C@H](CC#N)CC3)cc2)cc1 [Ex. 91, 2-((1r,4r)-4-(2-(4′-(Methylsulfonyl)-[1,1′-biphenyl]-4-yl)imidazo[4,5-d]pyrrolo[2,3-b]pyridin-1(6H)-yl)cyclohexyl)acetonitrile] |
| 11.7 | 0.4 | 33.6 | 874 | N#CC[C@H]1CC[C@H](n2c(-c3ccc(C(=O)c4ccccc4)cc3)nc3cnc4[nH]ccc4c32)CC1 [Ex. 92, 2-((1r,4r)-4-(2-(4-Benzoylphenyl)imidazo[4,5-d]pyrrolo[2,3-b]pyridin-1(6H)-yl)cyclohexyl)acetonitrile] |
| 12 | 0.5 | 4.5 | 181 | CC(C)(O)C1CCN(C(=O)Cc2nc3cnc4[nH]ccc4c3n2[C@H]2CC[C@H](CC#N)CC2)CC1 [Ex. 93, 2-((1r,4r)-4-(2-(2-(4-(2-Hydroxypropan-2-yl)piperidin-1-yl)-2-oxoethyl)imidazo[4,5-d]pyrrolo[2,3-b]pyridin-1(6H)-yl)cyclohexyl)acetonitrile] |
| 20.5 | 0.5 | 12.1 | 264 | N#CC[C@H]1CC[C@H](n2c(CNC(=O)CC3CC3)nc3cnc4[nH]ccc4c32)CC1 [Ex. 94, N-((1-((1r,4r)-4-(Cyanomethyl)cyclohexyl)-1,6-dihydroimidazo[4,5-d]pyrrolo[2,3-b]pyridin-2-yl)methyl)-2-cyclopropylacetamide] |
| 0.6 | 0.5 | 1.4 | 18.7 | N#CC[C@H]1CC[C@H](n2c(CN/C(CC3CCCCC3)=N/O)nc3cnc4[nH]ccc4c32)CC1 [Ex. 95] |
| 33.8 | 0.5 | 49.6 | 460 | N#CC[C@H]1CC[C@H](n2c(-c3ccc(C#N)cc3)nc3cnc4[nH]ccc4c32)CC1 [Ex. 96, 4-(1-((1r,4r)-4-(Cyanomethyl)cyclohexyl)-1,6-dihydroimidazo[4,5-d]pyrrolo[2,3-b]pyridin-2-yl)benzonitrile] |
| 45.1 | 0.5 | 26.9 | 3880 | N#CC[C@H]1CC[C@H](n2c(CNS(=O)(=O)c3ccc(C#N)cc3)nc3cnc4[nH]ccc4c32)CC1 [Ex. 97, 4-Cyano-N-((1-((1r,4r)-4-(cyanomethyl)cyclohexyl)-1,6-dihydroimidazo[4,5-d]pyrrolo[2,3-b]pyridin-2-yl)methyl)benzenesulfonamide] |
| 9.3 | 0.5 | 13 | 117 | CSc1nccc(-c2nc3cnc4[nH]ccc4c3n2[C@H]2CC[C@H](CC#N)CC2)n1 [Ex. 98, 2-((1r,4r)-4-(2-(2-(Methylthio)pyrimidin-4-yl)imidazo[4,5-d]pyrrolo[2,3-b]pyridin-1(6H)-yl)cyclohexyl)acetonitrile] |
| 29.7 | 0.5 | 6.7 | 182 | CC(C)(C)C/C(=N/O)NCc1nc2cnc3[nH]ccc3c2n1[C@H]1CC[C@H](CC#N)CC1 [Ex. 101] |
| 11.5 | 0.5 | 7.4 | 201 | N#CC[C@H]1CC[C@H](n2c(CC(=O)NCC(O)c3ccccc3)nc3cnc4[nH]ccc4c32)CC1 (stereo partly shown) [Ex. 102, 2-(1-((1r,4r)-4-(Cyanomethyl)cyclohexyl)-1,6-dihydroimidazo[4,5-d]pyrrolo[2,3-b]pyridin-2-yl)-N-(2-hydroxy-2-phenylethyl)acetamide] |
| 19.4 | 0.6 | 6.9 | 204 | N#CC[C@H]1CC[C@H](n2c(CC(=O)N3CCC(C#N)CC3)nc3cnc4[nH]ccc4c32)CC1 [Ex. 105, 1-(2-(1-((1r,4r)-4-(Cyanomethyl)cyclohexyl)-1,6-dihydroimidazo[4,5-d]pyrrolo[2,3-b]pyridin-2-yl)acetyl)piperidine-4-carbonitrile] |
| 14.3 | 0.6 | 11.2 | 149 | N#CC[C@H]1CC[C@H](n2c(CC(=O)NCC(O)CO)nc3cnc4[nH]ccc4c32)CC1 (stereo partly shown) [Ex. 106, 2-(1-((1r,4r)-4-(Cyanomethyl)cyclohexyl)-1,6-dihydroimidazo[4,5-d]pyrrolo[2,3-b]pyridin-2-yl)-N-(2,3-dihydroxypropyl)acetamide] |
| 18.2 | 0.6 | 5.1 | 142 | N#CC[C@H]1CC[C@H](n2c(CC(=O)N3CCC(F)(F)CC3)nc3cnc4[nH]ccc4c32)CC1 [Ex. 107, 2-((1r,4r)-4-(2-(2-(4,4-Difluoropiperidin-1-yl)-2-oxoethyl)imidazo[4,5-d]pyrrolo[2,3-b]pyridin-1(6H)-yl)cyclohexyl)acetonitrile] |
| 7.5 | 0.6 | 11.3 | 135 | N#CC[C@H]1CC[C@H](n2c(COC(=O)Nc3ccccc3)nc3cnc4[nH]ccc4c32)CC1 [Ex. 109, (1-((1r,4r)-4-(Cyanomethyl)cyclohexyl)-1,6-dihydroimidazo[4,5-d]pyrrolo[2,3-b]pyridin-2-yl)methyl Phenylcarbamate] |
| 29 | 0.6 | 17.4 | 416 | N#CC[C@H]1CC[C@H](n2c(CN/C(=N\O)C3CC3)nc3cnc4[nH]ccc4c32)CC1 [Ex. 110, (EZ)—N-((1-((1r,4r)-4-(Cyanomethyl)cyclohexyl)-1,6-dihydroimidazo[4,5-d]pyrrolo[2,3-b]pyridin-2-yl)methyl)-N′-hydroxycyclopropanecarboximidamide] |
| 4 | 0.6 | 6.3 | 68 | N#CC[C@H]1CC[C@H](n2c(CC(=O)Nc3cccnc3)nc3cnc4[nH]ccc4c32)CC1 [Ex. 111, 2-(1-((1r,4r)-4-(Cyanomethyl)cyclohexyl)-1,6-dihydroimidazo[4,5-d]pyrrolo[2,3-b]pyridin-2-yl)-N-(pyridin-3-yl)acetamide] |
| 3.6 | 0.6 | 40.8 | 161 | N#CC[C@H]1CC[C@H](n2c(CO/N=C(\N)CC3CC3)nc3cnc4[nH]ccc4c32)CC1 [Ex. 112, (Z)—N-((1-((1r,4r)-4-(Cyanomethyl)cyclohexyl)-1,6-dihydroimidazo[4,5-d]pyrrolo[2,3-b]pyridin-2-yl)methoxy)-2-cyclopropylacetimidamide] |
| 10.2 | 0.6 | 11.2 | 322 | COCc1nc2cnc3[nH]ccc3c2n1[C@H]1CC[C@H](CC#N)CC1 [Ex. 113, 2-((1r,4r)-4-(2-(Methoxymethyl)imidazo[4,5-d]pyrrolo[2,3-b]pyridin-1(6H)-yl)cyclohexyl)acetonitrile] |
| 4.8 | 0.6 | 12.7 | 102 | N#CC[C@H]1CC[C@H](n2c(C(=O)NCCO)nc3cnc4[nH]ccc4c32)CC1 [Ex. 114, 1-((1r,4r)-4-(Cyanomethyl)cyclohexyl)-N-(2-hydroxyethyl)-1,6-dihydroimidazo[4,5-d]pyrrolo[2,3-b]pyridine-2-carboxamide] |

| Compound | IC50 (JAK2-JH1JH2) [nM] | IC50 (JAK1-JH1JH2) [nM] | IC50 (Tyk2-JH1JH2) [nM] | IC50 (JAK3-JH1JH2) [nM] |
| --- | --- | --- | --- | --- |
| C[Si](C)(C)CNC(=O)Cc1nc2cnc3[nH]ccc3c2n1[C@H]1CC[C@H](CC#N)CC1 [Ex. 99, 2-(1-((1r,4r)-4-(Cyanomethyl)cyclohexyl)-1,6-dihydroimidazo[4,5-d]pyrrolo[2,3-b]pyridin-2-yl)-N-((trimethylsilyl)methyl)acetamide] | 30.9 | 0.5 | 29.2 | 276 |
